Values quoted from earlier work in patent publication US11285134B2, “Presbyopia treatments” (Allergan, Inc., priority 2018, dated 2022).
Like-named read-outs stand apart in the source and are kept apart here.

System: patients with glaucoma
Settings: 1-week treatment

CC[C@@H]1C(=O)OC[C@@H]1Cc1cncn1C [pilocarpine]
mean percent fall in IOP from baseline (1% dose strength): 17.5%
mean percent fall in IOP from baseline (4% dose strength): 26.8%
mean percent fall in IOP from baseline (8% dose strength): 29.1%
